Assay results from PubChem BioAssay (NCI).
Several values for one entry are separate records, joined by “and”; a condition that tells them apart may be missing. Equal values may be shown once.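 Where inhibition never reached the appropriate level, the endpoint shown equals the highest concentration tested. Otherwise, values were interpolated linearly from a five-concentration, 48-hour dose response in 96-well plates. GI50 is the concentration that inhibits growth by half. TGI denotes the concentration required for complete inhibition of growth.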

How the values were obtained:
Assay in all cases: growth of human tumour cells (NCI), 48 h
[1] = test system: CAKI-1 renal
[2] = test system: COLO 205 colon
[3] = test system: MALME-3M melanoma
[4] = test system: MDA-MB-435
[5] = test system: OVCAR-5 ovarian
[6] = test system: SF-268 CNS
[7] = test system: SK-OV-3 ovarian
[8] = test system: SNB-19 CNS
[9] = test system: T-47D breast
[10] = test system: U251 CNS

Row | Structure (SMILES) | GI50 [1] | TGI [1] | GI50 [2] [µM] | TGI [2] | GI50 [3] | TGI [3] | GI50 [4] | TGI [4] | GI50 [5] | TGI [5] | GI50 [6] | TGI [6] | GI50 [7] | TGI [7] | GI50 [8] [µM] | TGI [8] | GI50 [9] [µM] | TGI [9] | GI50 [10] | TGI [10]
1 | Cc1ccc(-c2nc(NCCOCCOCCN)nc(N3CCN(c4ccccn4)CC3)n2)cc1 | 16.5 µM | 33.7 µM | 6.89 | 14.2 µM | 15.2 µM | 33.7 µM | 10.5 µM | 30.2 µM | 16.9 µM | 32.9 µM | 14.3 µM | 29.9 µM | 19.1 µM | 35.6 µM | 16.9 | 34.9 µM | 13.7 | 29.1 µM | 14.2 µM | 33 µM
2 | CC(C)=C[C@@H]1C[C@H](C)[C@H]2CC[C@H](C)c3c(O)c(OC4OC(C)C(O)C(O)C4O)c(C)c1c32 (stereo partly drawn) | 14.5 µM | 28.7 µM | 14.4 | 27.9 µM | 12.9 µM | 29.8 µM | 13.6 µM | 27.2 µM | 10.5 µM | 23.2 µM | 16 µM | 31.3 µM | 18.9 µM | 32.9 µM | 15.7 | 29.2 µM | 12.5 | 26.5 µM | 14.7 µM | 27.8 µM
3 | NNc1c(C(N)=O)c2c(N)ncnc2n1C1OC(CO)C(O)C1O (stereo not drawn) | 0.0171 µM and < 0.0167 µM | 0.826 µM and 0.909 µM | < 0.01 | 0.0552 µM and 0.0342 µM | 0.0205 µM and 0.0363 µM | 0.084 µM and 0.171 µM | 0.0346 µM and 0.0483 µM | 0.148 µM and 0.265 µM | 0.0578 µM and 0.309 µM | 1.1 µM and 7.56 µM | 0.0451 µM and 0.0928 µM | 1.05 µM and 1.22 µM | < 0.0137 µM and 0.0273 µM | 0.413 µM and 0.361 µM | 0.187 | 8.54 µM and 18.2 µM |  | 0.104 µM and 0.14 µM | 0.023 µM and 0.0635 µM | 12.9 µM and > 100 µM
4 | Cc1cc(N2CCC(N3CCCC3)CC2)nc(/N=C(\N)Nc2ccc(Cl)c(Cl)c2)n1 | 1.29 µM | 2.68 µM | 1.7 | 3.26 µM | 2 µM | 3.82 µM | 1.74 µM | 3.3 µM | 1.77 µM | 3.79 µM | 2.34 µM | 6.66 µM | 1.88 µM | 3.49 µM | 2.14 | 5.63 µM | 1.92 | 3.59 µM | 1.79 µM | 3.35 µM
5 | O=C(Nc1ccn(C2CC(O)C(COC(c3ccccc3)(c3ccccc3)c3ccccc3)O2)c(=O)n1)c1ccccc1 (stereo not drawn) |  | 18.4 µM |  | 4.07 µM |  | 5.89 µM |  | 5.68 µM |  | 3.53 µM |  | 20 µM |  | 28.3 µM |  | 14.2 µM |  | 16.7 µM |  | 11.4 µM
6 | CC[C@H](C)[C@H](NC(=O)C12C3C4C1C1C2C3C41NC)C(=O)N(C)[C@H](C[C@@H](OC(C)=O)c1nc(C(=O)N[C@@H](Cc2ccccc2)C[C@H](C)C(=O)OC)cs1)C(C)C (stereo partly drawn) | 5.57 µM | > 14.3 µM | 0.402 | 2.51 µM |  | > 14.3 µM | 0.0489 µM | 0.377 µM | > 7.57 µM | > 14.3 µM | 1.3 µM | > 14.3 µM | 0.698 µM | > 14.3 µM | 0.701 | > 14.3 µM | > 14.3 | > 14.3 µM | 0.594 µM | > 14.3 µM
7 | Nc1nc(SCc2ccccc2CCl)c2[nH]cnc2n1 | 15.6 µM | 44 µM | 16.2 | 36.1 µM | 12.5 µM | 28.8 µM | 12.8 µM | 25.7 µM | 18.9 µM | 34.6 µM | 12.6 µM | 25.6 µM | 16 µM | 32.2 µM | 15.8 | 35.5 µM | 15.6 | 52.3 µM | 13.1 µM | 27.3 µM
8 | CC(=O)ON(OCc1ccc2ccccc2c1)C(C)=O | > 100 µM | > 100 µM | > 100 | > 100 µM | > 100 µM | > 100 µM | > 100 µM | > 100 µM | > 100 µM | > 100 µM | > 100 µM | > 100 µM | > 100 µM | > 100 µM | > 100 | > 100 µM | > 100 | > 100 µM | > 100 µM | > 100 µM
9 | O=[N+]([O-])c1ccccc1N=Nc1c(O)[nH]c2c(Cl)cccc12 |  | 26.3 µM |  | > 100 µM |  | > 35.2 µM |  | > 100 µM |  | > 100 µM |  | 59.8 µM |  | 54.7 µM |  | > 79.3 µM |  | > 75 µM |  | > 51.5 µM
10 | CCN(CC)CCOC(COc1cc(C)cc(C)c1)COc1cc(C)cc(C)c1 | 3.7 µM | 16 µM | 1.65 | 3.52 µM | 1.88 µM | 3.86 µM | 1.64 µM | 3.63 µM | 1.85 µM | 6.18 µM | 4.26 µM | 17.6 µM | 4.86 µM | 17.7 µM | 2.3 | 7.36 µM | 2.34 | 6.83 µM | 3.12 µM | 11.5 µM
11 | S=c1ssnc1-c1cc2ccccc2o1 | 10 µM | 26.1 µM | 14.8 | 39.5 µM | 20.7 µM | 46.8 µM | 11.6 µM | 32 µM | 20.8 µM | 39.2 µM | 13.9 µM | 35 µM | 18.7 µM | 39.2 µM | 16.7 | 36.8 µM | 21.9 | > 100 µM | 15.1 µM | 28.4 µM
12 | O=C(O)CNc1ccc2c(c1)Cc1cc(Br)ccc1-2 |  | 98.4 µM |  | > 71 µM |  | > 67.9 µM |  | 45 µM |  | > 73.1 µM |  | > 100 µM |  | 98.5 µM |  | > 84.6 µM |  | > 100 µM |  | 97 µM
13 | Cc1nc2c(C)ccc([N+](=O)[O-])c2c(NCCCN(C)C)c1C |  | > 100 µM |  | 47.6 µM |  | > 55.3 µM |  | > 100 µM |  | > 100 µM |  | > 100 µM |  | > 100 µM |  | > 100 µM |  | > 100 µM |  | > 100 µM
14 | CCn1cc(C(=O)O)c(=O)c2cc(F)c(N3CCN(S(=O)(=O)c4ccc(Cl)cc4Cl)CC3)cc21 | 2.01 µM | 4.8 µM | 2.44 | 5.1 µM | 1.94 µM | 4.17 µM | 1.97 µM | 4.44 µM | 3.43 µM | > 100 µM | 3.86 µM | > 100 µM | 3 µM | 8.94 µM | 3.07 | 20.6 µM | 3.11 | 9.71 µM | 3.3 µM | 14.7 µM
15 | Nc1ccc(CC[C@H]2CCC/C=C/[C@@H]3C[C@H](O)C[C@H]3[C@H](O)/C=C/C(=O)O2)cc1 | 0.0349 µM | 1.47 µM | 0.0188 | 0.034 µM | 0.0731 µM | 0.543 µM | 0.0388 µM | 25.2 µM | 0.0481 µM | > 78.1 µM | 0.0351 µM | > 100 µM | 0.0483 µM | > 100 µM | 0.0504 | > 100 µM | 0.0751 | > 100 µM | 0.048 µM | > 100 µM
16 | NC(=NCCCCCCN=C(N)/N=C(\N)Nc1ccc(Cl)cc1)/N=C(\N)Nc1ccc(Cl)cc1 | 1.33 µM | 4.79 µM | 0.951 | 1.71 µM | 1.1 µM | 3.28 µM | 1.54 µM | 5.94 µM | 1.83 µM | 6.32 µM | 1.48 µM | 4.46 µM | 0.916 µM | 5.54 µM | 1.46 | 5.97 µM | 1.71 | 7.72 µM | 1.07 µM | 2.77 µM
17 | CNC(=O)CCN1CCN(CC/C=C2\c3ccccc3Sc3ccc(Cl)cc32)CC1 | 3.42 µM | 19.7 µM | 2.48 | 6 µM | 2.59 µM | 6.16 µM | 1.96 µM | 4.91 µM | 22.6 µM | 41.2 µM | 9.83 µM | 23.9 µM | 16.4 µM | 31.2 µM | 16 | 30.7 µM | 9.21 | 26.5 µM | 7.22 µM | 20.7 µM
18 | [Br][Pb]([c]1ccccc1)([c]1ccccc1)[c]1ccccc1 | 0.2 µM | 0.454 µM | 0.177 | 0.356 µM | 0.183 µM | 0.39 µM | 0.19 µM | 0.435 µM | 0.289 µM | 1.22 µM | 0.171 µM | 0.35 µM | 0.401 µM | 1.51 µM | 0.221 | 0.527 µM | 0.143 | 0.318 µM | 0.169 µM | 0.309 µM
19 | COc1cc(N=Nc2cc(Cc3ccc(N(C)C)cc3)c(N)cc2N(C)C)c2ncccc2c1 | 0.408 µM | 2.37 µM | 0.176 | 1.21 µM | 0.621 µM | 2.28 µM | 0.515 µM | 2.07 µM | 0.801 µM | 2.66 µM | 0.593 µM | 2.31 µM | 0.406 µM | 8.17 µM | 0.577 | 3.71 µM | 0.211 | 2 µM | 0.466 µM | 1.94 µM
20 | COC(=O)c1c(C)nc(C)c2c1C(=O)C(Br)=C(NCc1ccccc1)C2=O | 5.66 µM | 18.7 µM | 1.7 | 3.63 µM | 1.47 µM | 2.85 µM | 1.86 µM | 3.38 µM | 3.11 µM | 7.9 µM | 3.46 µM | 13.5 µM | 6.2 µM | 19.2 µM | 3.04 | 9.23 µM | 2.26 | 5 µM | 2.74 µM | 8.34 µM
